Data set [1] relates to non-alcoholic steatohepatitis (NASH). In words: Accelerated mouse model of NASH (STZ + HFD), Part II. Conditions: 50 mg/kg daily oral. The data set is classed as in vivo, C57BL/6J mice. As to the method:
The subjects for the study were 36 C57BL/6J male mice. Mice were given 200 μg streptozotocin (STZ) at 2 days after birth and fed high fat diet (HFD) starting at four weeks of age until the remainder of the study (13 weeks of age). This intervention early in their lives induces accelerated progression of non-alcoholic steatohepatitis (NASH) and has been thoroughly characterized.
The Vehicle was a solution of 0.5% (w/v) CMC and 0.05% (v/v) Tween-80 in water. Powdered 25HC3 S was constituted into the Vehicle solution to result in drug concentration of 10 mg/mL. The suspensions were homogenized for approximately 5 minutes (with 10 second breaks every 30-40 seconds) and swirled before dosing to maintain homogeneity. The formulated test article was prepared weekly and kept at room temperature.
Mice were divided into treatment groups (N=10/group) and dosed daily by oral gavage with water (control), Vehicle or 50 mg/kg 25HC3 S starting from Week 9 to Week 13 (28 days treatment).

Data set [2] is described as follows: Solubility of 25HC3S in aqueous solutions, organic solvents or oils. Conditions: various aqueous solutions and FDA approved organic solvents or oils. The data set is classed as physicochemical. From the text:
(§1) The HPLC technique involved reverse phase HPLC for measuring the concentration of 25HC3 S in the solubility samples.

The nature of data set [3]: Stability and impurity profile of 25HC3S suspension at room temperature by HPLC. Type of data set: physicochemical. On the procedure:
as §1
(§2) Weigh 80 mg of 25HC3S (Lot #B, Passed through 20 mesh screen and Jet-milled, 3rd pass) into a 10 mL vial. Add to the vial, 8 mL of Vehicle PEG 3350 (with 0.15% L-Methionine and 0.9% NaCl). […] A total of 9 samples were dispensed using 1 mL BD syringes attached to 20G1″ or 25G⅝″ Terumo UTW needles for homogeneity analysis by HPLC (Study #14) and stability study (Study #17).

Data set [4] can be described thus: Homogeneity and content uniformity of 25HC3S suspension by HPLC. Type of data set: physicochemical. As to the method:
as §1, §2
Weigh 50 and 80 mg of 25HC3S into 2 and 10 mL vials, respectively. Add to the vial, 2 mL and 8 mL of Vehicle PEG 3350 with L-Methionine. […] The vial was inverted 10 times prior to dispensing 0.2 or 0.9 mL into volumetric flasks for methanol dilution for HPLC analysis (total 8 and 7 samples, respectively for HPLC analysis for potency and stability (Study #15).
Weighed approximately 125 mg each of 25HC3S (Lot #C, jet milled and passed through a 20 mesh screen) into a 10 mL vial. Added to vial, 5 mL of Vehicle PEG 3350 without L-Methionine. The vial was placed horizontally in a flat bed shaker, shaken at 100 rpm for up 45 minutes (Mixing Method 4). There were some small wet lumps stuck to the wall and bottom of the glass vial.
Weigh 87 mg of 25HC3S (Lot #C, Jet milled and then pass 20 mesh screen) into a 5-mL vial. Add to the vial 3 mL Vehicle PEG 3350 (without L-methionine and with 0.75% NaCl). […] Weigh another approximately and accurately 90 mg each of 25HC3S (Lot #D and Lot #B, micronized, one pass) into 3 separate 10 mL vials with 3 mL of Vehicle PEG 3350. The vials were placed in a flat bed shaker at 200 rpm for 45 minutes (Mixing Method 4). […] A second set of samples was prepared likewise from the same 3 vials except using 1 mL BD syringe attached to a 27G½″ needle. The homogeneity was determined (Study #19).

The nature of data set [5]: Single SC or IM injection PK study in rats. The data set is classed as in vivo, Sprague Dawley rats. As to the method: The subjects for the study were 15 male Sprague Dawley rats (8-11 weeks of age; 280-327 g at time of dosing). […] All animals were in healthy condition and admitted to the study.
The Vehicle was a solution of 3% (w/v) polyethylene glycol 3350, 0.3% (v/v) polysorbate 80, 0.7% (w/v) sodium chloride, 0.15% (w/v) L-methionine, 10 mM sodium phosphate buffer at pH 7.4 in water. 25HC3S was mixed into the Vehicle solution to result in drug concentrations of 25, 5 and 10 mg/mL. […] The formulated test article was used within 24 hours of constitution.
Each rat received a single IM or SC injection (2 doses) (N=5/group). The dose level for the IM injection was 25 mg/kg was administered in a dose volume of 1 mL/kg. There were two dose groups for the SC injection route. The dose levels for the SC injections were 25 and 50 mg/kg with a dose volume of […] for both groups (drug concentrations were 5 and 10 mg/mL, respectively). Whole blood samples were collected via the jugular vein or the submandibular vein at pre-dose, 0.5, 1, 2, 4, 8, 12, 24, and 32 hours (h) post dose from each rat; however, the last blood collection may have been collected by terminal cardiac puncture with the animals deeply anesthetized by isoflurane. Blood samples were placed into tubes containing K2EDTA. The blood was gently mixed to assure distribution of the anti-coagulant and the resulting plasma samples underwent analyses to quantify 25HC3 S levels. […] Assessments included, but were not limited to, assessment of activity, posture, respiration, emesis, seizure, hydration status, injection site assessment and overall body condition.

Setting [6] is: Week 9 to 13, vs Vehicle, p<0.05.

The structures appear in SMILES notation.

As for `C[C@H](CCCC(C)(C)O)[C@H]1CC[C@H]2[C@@H]3CC=C4C[C@@H](OS(=O)(=O)[O-])CC[C@]4(C)[C@H]3CC[C@]12C.[Na+]` [Formulation 25HC3S, 5-cholesten-3, 25-diol, 3-sulfate], the “NAS (NAFLD activity score)” value in data set [1] (Week 9 to 13, vs Vehicle) is reported as “trend of reduction”. Further, the hepatocyte ballooning result in data set [1] (setting [6]) is recorded as “significant reduction”. For the same molecule, the “percent area of fibrosis (Sirius red-positive area)” value in data set [1] (setting [6]) was “significantly decreased”. The extent of fibrosis result in data set [1] (compared to baseline Week 9 mice) is “trended lower”. Further, the solubility entry in data set [2] is “low solubility”. Also, the odor after storage entry in data set [3] (25HC3S in Vehicle PEG 3350 with L-Methionine, room temperature for a few months) is “produced a sulfur-like odor”. Moreover, the “% peak area for 25HC3S” value in data set [3] (after 2 weeks at RT, 25 mg/mL in Vehicle PEG 3350 (with 0.15% L-Methionine), 25HC3S plus two impurities as 100%, n=2) is recorded as “approximately 99.17%”. In addition, in data set [3] (after 2 weeks at RT, time 0 concentration as 100%, n=2, 25 mg/mL in Vehicle PEG 3350 (with 0.15% L-Methionine)), the drug potency is on record as 103.7%. In addition, the “25HC3S by peak area normalization” value in data set [3] (final suspension formulation 25 mg/mL, room temperature up to 14 days) amounted to 99.172%. Moreover, the “stable at ambient room temperature” value in data set [3] (suspension 25 mg/mL in Vehicle PEG 3350 (with 0.15% L-Methionine)) is listed as “at least 2 weeks”. For the same molecule, the homogeneity in data set [4] (10 mg/mL in Vehicle PEG 3350 (with 0.15% L-Methionine), n=7, 0.9 mL each, Study #15) is 100.5-103.1 % LS; in data set [4] (10 mg/mL suspension in Vehicle PEG 3350 (0.15% L-Methionine, 0.9% NaCl), Lot #B jet-milled 3rd pass, n=9, Study #14), 94.3-98.1 % LS; in data set [4] (25 mg/mL in Vehicle PEG 3350 (with 0.15% L-Methionine), n=8, 0.2 mL each, Study #15), 96.2-109.4 % LS. In addition, the “homogeneity (and content uniformity)” value in data set [4] (final improved formulation 25 mg/mL (Study #19)) is 89.3-105.9 % label strength. Besides, the mean maximum concentration in data set [5] (IM 25 mg/kg) was 101.9 (±17.1) ng/mL; in data set [5] (SC 25 mg/kg) it was 127.1 (±93.8) ng/mL; in data set [5] (SC 50 mg/kg), 76 (±15.9) ng/mL. For the same molecule, the “mean time to maximum plasma drug concentration” value was 10.4 (±2.2) hr in data set [5] (IM 25 mg/kg), 7.6 (±4.6) hrs in data set [5] (SC 25 mg/kg) and 7.2 (±1.8) hrs in data set [5] (SC 50 mg/kg). For the same molecule, in data set [5] (SC 50 mg/kg), the “mean concentration at 32 h” value is 34.2 (±13.8) ng/mL. In data set [5] (single IM or SC injection), the clinical signs entry is “no observable clinical signs”.

For the origin of these results see patent US20220175798A1, “COMPOSITIONS COMPRISING OXYGENATED CHOLESTEROL SULFATE AND AT LEAST ONE OF POLYALKYLENE GLYCOL, CARBOXYMETHYL CELLULOSE AND POLYOXYLGLYCERIDE” (Durect Corporation, priority 2016, published 2022).
